Earlier results as cited in publication PMC7606817 (Journal of controlled release : official journal of the …, 2020).

Conditions: mice

Compound: [C-]#[O+] [CO, Carbon monoxide]
- CO elimination half-life: 20 min
